Assays:
[1] = Effects of feed formula enriched with encapsulated insulin on lambs' weight gain, disease incidence and death rate; format: in vivo, Assaf specie lambs; conditions: one study
From the text: More than 1,000 Assaf specie lambs over a period of 12 months at the age of 2-3 days from birth, were used. The growing period was divided into two periods: 3-28 days from birth, during which the lambs were exclusively fed by a milk replacer; and 29-75 days from birth, during which the lambs were fed by post-weaning mix/mash. Lambs in the study groups received between 600 MicroUnits-3,000 MicroUnits of insulin/ml. of milk replacer, and between 1,600 MicroUnits-5,000 MicroUnits of insulin/gr. of mix/mash.
A liquid blend, of 4 Kilograms of Maltodextrin, 40 Liters of Saline 0.9% and 100,000 IU (International Units) of insulin was blended (e.g., 25 IU insulin per 1 g of Maltodextrin). The liquid blend was then freeze-dried. The product of the process was maltodextrin encapsulated insulin. 97% of the bioactive properties of the insulin were maintained after the freeze-drying process. A premix of 10 Kg. was prepared from standard milk powder and the maltodextrin encapsulated insulin. The premix was then blended with 740 Kg. of standard milk replacer product, to generate 750 Kg. of insulin enriched commercial milk replacer.

[2] = Effects of dietary insulin in milk replacer on weight gain in bovine neonates; format: in vivo, Friesy and Charole' calves; conditions: calves, 600 MicroUnits insulin/cc of liquid milk replacer
From the text: 100 Friesy and Charole' calves in ages 12-15 days from birth, were used. Each calf received a milk replacer, of up to 6 liters a day, until the 37th day from birth. From the 37th day, milk replacer quantity was reduced by 0.5 liters every 2 days while simultaneously, pellet quantity increased, until the calf's 57 days old, when it is considered fully weaned. Calves in the experimental group receive 600 MicroUnits/cc. of liquid milk replacer. Calves in the control group receive no insulin at all. Daily growth in grams per each 1 Kg. of birth weight was measured and calculated for each calf.

insulin
lambs survived at marketing ([1]; insulin fed group started with 70 newly born lambs, 150 days after birth): 68 lambs | death rate ([1]; insulin fed group, 70 lambs, at marketing (150 days after birth)): 2.8% | death rate lower compared with the control group ([1]; insulin-fed group 2.8% vs control 11.6% death rate): 74.8% | average daily weight growth in grams per each Kg. of birth weight ([2]; at the end of the study period): 22.47 g/Kg birth weight | more weight gained compared with the control group ([2]; between day 17 and day 67 after birth): up to 26%

From patent publication US9943485B2, “Bioactive compounds protection method and compositions containing the same” (priority 2003, dated 2018)
